Blank lines part the entries; values can stand above or below the compound they belong to.
Experiments:
[1] = TEM / optical observation of assemblies and aggregates; type: physicochemical
[2] = Hydrogelation test; type: physicochemical; conditions: 4 mM solution of 1, pH changed to pH 6.4, Figure S2
[3] = 1 (800 µM), peaks disappear at 4.0 wt% Tw-80

Compound: CN[C@H](CC(C)C)C(=O)N[C@H]1C(=O)N[C@@H](CC(N)=O)C(=O)N[C@H]2C(=O)N[C@H]3C(=O)N[C@H](C(=O)N[C@H](C(=O)O)c4cc(O)cc(O)c4-c4cc3ccc4O)[C@H](O)c3ccc(c(Cl)c3)Oc3cc2cc(c3O)Oc2ccc(cc2Cl)[C@H]1O [vancomycin aglycon, reference compound]
aggregate formation in EISA of 1P when it replaces 2 ([1]; TEM, Figure S20, short fibers were observed): no aggregates were observed

appearance after addition of five equivalents of 2 ([1]; 500 µM suspension of 1, 24–48h after the addition, Figure S5): opaque colloidal precipitate | morphology on direct addition in water ([1]; 1 500 µM, pH 7.4, TEM): suspension consisting of nanoribbons | hydrogel formation [2]: self-supporting gel | size of the assemblies (DLS peaks) [3]: > 100 nm | binding with 2 by ITC, in words (ITC in PBS, no surfactant, 1 and 3 as assemblies): too weak to be measured by ITC
Compound: Nap-FFYGGaa [compound 1]
ITC heating profile on titration with 2, in words (ITC, 1.0 wt% of Tw-80, Figure 2C): release of heat

appearance after addition of one equivalent of 2, without ALP ([1]; 1P 500 µM, 1 eq. 2, pH 7.4, TEM aggregates largely unstructured): colloidal suspension | morphology after simultaneous addition of 2 and ALP ([1]; 1P 500 µM, 2 (1 eq.), ALP 1.25 U/mL, pH 7.4, TEM, precipitates over time): large aggregates | morphology after ALP dephosphorylation in the absence of 2 ([1]; 1P 500 µM, ALP 1.25 U/mL, pH 7.4, TEM): long nanofibers
Compound: Nap-FFpYGGaa [1P]
